Measured values reported in ChEMBL document CHEMBL1149880, “Xanthones from Gentianella amarella ssp. acuta with acetylcholinesterase and monoamine oxidase inhibitory activities” (J Nat Prod, 2008).

Legend:
[1] = molecular target: Acetylcholinesterase (Homo sapiens) (UniProt P22303); details: at 10 µM
Description: Inhibition of acetylcholinesterase at 10 uM by Ellman's method

[2] = molecular target: T1, Amine oxidase [flavin-containing] B (Homo sapiens, UniProt P27338); assay: Inhibition of monoamine oxidase B at 10 uM; details: read-out: INH
T1 sequence (P27338 whole entry): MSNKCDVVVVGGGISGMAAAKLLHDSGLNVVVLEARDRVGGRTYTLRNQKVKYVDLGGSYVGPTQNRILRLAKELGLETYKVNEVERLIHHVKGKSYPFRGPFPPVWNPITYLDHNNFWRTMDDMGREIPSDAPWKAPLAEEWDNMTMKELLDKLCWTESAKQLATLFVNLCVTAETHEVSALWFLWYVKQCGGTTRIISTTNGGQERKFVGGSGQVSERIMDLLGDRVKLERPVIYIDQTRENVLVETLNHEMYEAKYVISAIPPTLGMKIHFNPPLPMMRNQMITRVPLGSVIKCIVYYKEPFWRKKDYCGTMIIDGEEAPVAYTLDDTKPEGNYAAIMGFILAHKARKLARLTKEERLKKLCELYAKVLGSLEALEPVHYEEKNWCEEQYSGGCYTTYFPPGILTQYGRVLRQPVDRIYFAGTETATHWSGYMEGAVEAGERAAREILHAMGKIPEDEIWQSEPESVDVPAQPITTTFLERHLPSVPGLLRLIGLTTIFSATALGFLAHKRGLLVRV

[3] = molecular target: T2, Amine oxidase [flavin-containing] A (Homo sapiens, UniProt P21397); assay: Inhibition of monoamine oxidase A at 10 uM; details: read-out: INH
T2 sequence (P21397 whole entry): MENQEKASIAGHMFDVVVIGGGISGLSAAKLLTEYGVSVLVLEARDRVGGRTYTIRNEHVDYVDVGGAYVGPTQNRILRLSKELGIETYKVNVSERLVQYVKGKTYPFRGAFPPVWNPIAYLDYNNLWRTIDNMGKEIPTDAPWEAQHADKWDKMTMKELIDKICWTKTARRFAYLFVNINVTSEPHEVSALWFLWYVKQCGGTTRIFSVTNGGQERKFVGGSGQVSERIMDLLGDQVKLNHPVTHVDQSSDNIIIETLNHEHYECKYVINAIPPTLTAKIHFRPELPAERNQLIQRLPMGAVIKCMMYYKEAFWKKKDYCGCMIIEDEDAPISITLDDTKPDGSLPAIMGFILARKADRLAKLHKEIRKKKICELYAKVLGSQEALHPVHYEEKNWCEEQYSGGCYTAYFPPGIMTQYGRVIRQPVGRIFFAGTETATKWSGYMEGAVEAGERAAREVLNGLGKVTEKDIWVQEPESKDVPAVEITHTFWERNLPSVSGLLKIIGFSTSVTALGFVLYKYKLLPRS

Acetylcholinesterase (Homo sapiens), sequence (P22303 whole entry): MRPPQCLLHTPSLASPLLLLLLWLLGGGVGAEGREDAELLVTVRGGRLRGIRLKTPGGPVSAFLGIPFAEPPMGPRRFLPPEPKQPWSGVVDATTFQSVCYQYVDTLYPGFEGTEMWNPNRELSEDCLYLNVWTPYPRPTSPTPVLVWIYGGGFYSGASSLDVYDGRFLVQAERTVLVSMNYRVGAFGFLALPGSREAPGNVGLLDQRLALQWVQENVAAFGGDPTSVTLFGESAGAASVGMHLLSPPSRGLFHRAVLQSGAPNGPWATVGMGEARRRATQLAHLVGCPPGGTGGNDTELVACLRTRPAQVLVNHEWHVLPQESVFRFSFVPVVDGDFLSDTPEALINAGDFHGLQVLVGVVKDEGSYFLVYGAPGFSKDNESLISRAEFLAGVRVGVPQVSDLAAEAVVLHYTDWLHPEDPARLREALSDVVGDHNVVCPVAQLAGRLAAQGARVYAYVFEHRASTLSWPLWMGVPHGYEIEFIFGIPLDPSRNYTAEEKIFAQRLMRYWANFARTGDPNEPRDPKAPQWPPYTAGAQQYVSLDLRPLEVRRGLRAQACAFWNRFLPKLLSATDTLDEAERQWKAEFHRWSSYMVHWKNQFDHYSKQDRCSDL

| SMILES | inhibition [1] | inhibition at 10 µM [2] | inhibition at 10 µM [3] |
| --- | --- | --- | --- |
| COc1cc(O)c2c(=O)c3c(O[C@@H]4O[C@H](CO)[C@@H](O)[C@H](O)[C@H]4O)ccc(O)c3oc2c1 [SWERTIANOLIN] | 9.8% | 93.6% | 43.8% |
| COc1cc(O)c2c(=O)c3c(O)c(O[C@@H]4O[C@H](CO)[C@@H](O)[C@H](O)[C@H]4O)ccc3oc2c1OC [TRIPTEXANTHOSIDE C] | 43.7% | 38.8% | 13.4% |
| C#CCN(C)Cc1ccccc1 [PARGYLINE] |  | 98.2% | 60% |
| COc1ccc(O)c2c(=O)c3c(O)cc(O[C@@H]4O[C@H](CO)[C@@H](O)[C@H](O)[C@H]4O)c(OC)c3oc12 | 17.6% | 47.8% | 40.2% |
| COc1cc(O)c2c(=O)c3c(O)ccc(O)c3oc2c1 [BELLIDIFOLIN] | 21.9% | 65.2% | 98.9% |
| O=c1c2c(O)cc(O)cc2oc2c(O)ccc(O)c12 [DEMETHYLBELLIDIFOLIN] | 17.5% | 59% | 90.5% |
| O=c1c2c(O)cc(O)cc2oc2c(O)ccc(O[C@@H]3O[C@H](CO)[C@@H](O)[C@H](O)[C@H]3O)c12 [NORSWERTIANOLIN] | 4.4% | 28.9% | 12.2% |
| COc1cc(O)c2c(=O)c3cc(O[C@@H]4O[C@H](CO)[C@@H](O)[C@H](O)[C@H]4O)ccc3oc2c1OC [VERATRILOSIDE] | 28.2% | 56% | 19.4% |
| COc1c(O)ccc2c(=O)c3c(OC4O[C@H](CO)[C@@H](O)[C@H](O)[C@H]4O)cc(O)c(OC)c3oc12 (some centres not stated) | 1.5% | 70.5% | 15% |
| COc1ccc(O[C@@H]2O[C@H](CO)[C@@H](O)[C@H](O)[C@H]2O)c2c(=O)c3c(O)c(-c4cc(O)c5oc6cc(O)cc(O)c6c(=O)c5c4O)c(O)cc3oc12 | 12.3% | 39.1% | 21.4% |
| O=c1c2c(O)c(-c3cc(O)c4oc5cc(O)cc(O)c5c(=O)c4c3O)c(O)cc2oc2c(O)ccc(O)c12 | 20.9% | 41.1% | 14.8% |
